From patent US20230114241A1, “METHODS OF TREATING EPILEPSY USING THE SAME” (Trevena, Inc., priority 2019, published 2023)

target: human sphingosine-1-phosphate receptor 1 (S1P1) (Homo sapiens, UniProt P21453); assay: Inhibition of cAMP production (HTRF cAMP HiRange), S1P1 CHO-K1 cells; type: cell-based; settings: inhibition of cAMP production, S1P1; read-out: hS1P1 CAMP pEC50 (converted)
In short: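 CHO-K1 cells co-expressing human S1P1 (C-terminal ProLink tag) and EA-β-arrestin2, plated overnight; after 30 min compound incubation at 37 °C, intracellular cAMP measured by HTRF TR-FRET following 1 h at room temperature. Values normalized to fingolimod.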

Sequence of human sphingosine-1-phosphate receptor 1 (S1P1) (P21453 whole entry): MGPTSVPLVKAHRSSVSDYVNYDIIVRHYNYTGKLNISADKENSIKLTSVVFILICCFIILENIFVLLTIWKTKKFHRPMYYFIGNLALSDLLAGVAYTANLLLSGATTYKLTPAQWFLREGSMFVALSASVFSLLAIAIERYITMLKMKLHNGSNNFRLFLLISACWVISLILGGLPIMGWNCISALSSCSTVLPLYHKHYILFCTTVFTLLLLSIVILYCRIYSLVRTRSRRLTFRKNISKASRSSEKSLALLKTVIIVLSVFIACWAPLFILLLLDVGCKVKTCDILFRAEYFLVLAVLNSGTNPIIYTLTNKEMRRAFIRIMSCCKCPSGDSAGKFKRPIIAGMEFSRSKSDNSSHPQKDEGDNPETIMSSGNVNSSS

EC50 [µM] | SMILES
> 0.316 | Cc1ccncc1-c1noc(-c2ccc3c(c2)nnn3C2CCOCC2)n1 [Compound 439, 5-[3-(4-methylpyridin-3-yl)-1,2,4-oxadiazol-5-yl]-1-(oxan-4-yl)-1H-1,2,3-benzotriazole]
< 0.316 | CC(C)n1nnc2cc(-c3nc4c(o3)CCc3sccc3-4)ccc21 [Compound 456, 4-[1-(propan-2-yl)-1H-1,2,3-benzotriazol-5-yl]-5-oxa-10-thia-3-azatricyclo[7.3.0.0^2,6] dodeca-1(9),2(6),3,11-tetraene]
< 0.316 | N#Cc1cc(-c2nnc(-c3ccc4[nH]cnc4c3)o2)ccc1NC(CF)CF [Compound 600, 5-[5-(1H-1,3-benzo-diazol-5-yl)-1,3,4-oxadiazol-2-yl]-2-[(1,3-difluoropropan-2-yl)amino]benzonitrile]
> 0.316 | COc1cccc(-c2coc(-c3ccc4c(c3)nnn4C(C)C)n2)c1 [Compound 385, 5-[4-(3-methoxyphenyl)-1,3-oxazol-2-yl]-1-(propan-2-yl)-H-1,2,3-benzotriazole]
> 0.316 | Cc1ccccc1-c1cc(-c2ccc3c(c2)nnn3C(C)C)n(C)c1 [Compound 517, 5-[1-methyl-4-(2-methylphenyl)-1H-pyrrol-2-yl]-1-(propan-2-yl)-1H-1,2,3-benzotriazole]
> 0.316 | CCc1ccccc1-c1nc(-c2ccc3c(c2)nnn3C(C)(C)CO)no1 [Compound 624, 2-(5-(5-(2-ethyl-phenyl)-1,2,4-oxadiazol-3-yl)-1H-benzo[d][1,2,3]triazol-1-yl)-2-methyl-propan-1-ol]

The remaining lines, values behind:

SMILES | EC50 [µM]
COCCn1cc(-c2ccccc2C)cc1-c1ccc2c(c1)nnn2C(C)C [Compound 534, 5-[1-(2-methoxyethyl)-4-(2-methylphenyl)-1H-pyrrol-2-yl]-1-(propan-2-yl)-1H-1,2,3-benzotriazole] | > 0.316
CC(C)Oc1ccc(-c2ccc(-c3ccc4c(c3)nnn4C(C)C)cc2)cc1C#N [Compound 506, 4-isopropoxy-4′-(1-isopropyl-1H-benzo[d][1,2,3]triazol-5-yl)-[1,1′-biphenyl]-3-carbonitrile] | < 0.316
CC(C)(CO)n1nnc2cc(-c3noc(-c4cccnc4F)n3)ccc21 [Compound 643, 2-(5-(5-(2-fluoro-pyridin-3-yl)-1,2,4-oxadiazol-3-yl)-1H-benzo[d][1,2,3]triazol-1-yl)-2-methylpropan-1-ol] | > 0.316
CC(C)n1nnc2cc(-c3nc(-c4ccccn4)co3)ccc21 [Compound 474, 1-(propan-2-yl)-5-[4-(pyridin-2-yl)-1,3-oxazol-2-yl]-1H-1,2,3-benzotriazole] | > 0.316
N#Cc1cc(-c2nnc(-c3ccc4[nH]cnc4c3)o2)ccc1NC1CC1 [Compound 598, 5-[5-(1H-1,3-benzo-diazol-5-yl)-1,3,4-oxadiazol-2-yl]-2-(cyclopropyl-amino)benzonitrile] | < 0.316
COc1ccccc1-c1nc(-c2ccc3c(c2)nnn3C(C)C)co1 [Compound 575, 5-[2-(2-methoxy-phenyl)-1,3-oxazol-4-yl]-1-(propan-2-yl)-1H-1,2,3-benzotriazole] | < 0.316

same assay, conditions: inhibition of cAMP production; potency; read-out: hS1P1 CAMP pEC50 (converted)

EC50 [µM] | SMILES
> 0.316 | Cc1ccccc1-c1noc(-c2ccc3c(c2)nnn3CC2CC2)n1 [Compound 288, 1-(cyclopropylmethyl)-5-[3-(2-methylphenyl)-1,2,4-oxadiazol-5-yl]-1H-1,2,3-benzotriazole]
> 0.316 | COc1cccc(-c2noc(-c3ccc4c(c3)nnn4C3CCCC3)n2)n1 [Compound 124, 1-cyclopentyl-5-[3-(6-methoxypyridin-2-yl)-1,2,4-oxadiazol-5-yl]-1H-1,2,3-benzotriazole]
> 0.316 | Cc1ccc(-c2noc(-c3ccc4c(c3)nnn4C3CC3)n2)cn1 [Compound 87, 1-cyclopropyl-5-[3-(6-methylpyridin-3-yl)-1,2,4-oxadiazol-5-yl]-1H-1,2,3-benzotriazole]
< 0.316 | C=CCNc1ccc(-c2nc(-c3ccc4[nH]ncc4c3)no2)cc1C#N [Compound 141, 5-(3-(1H-indazol-5-yl)-1,2,4-oxadiazol-5-yl)-2-(allyl-amino)benzonitrile]
> 0.316 | CC(C)n1nnc2cc(-c3noc(-c4ccc(COc5ccccc5)cc4)n3)ccc21 [Compound 131, 3-(1-isopropyl-1H-benzo[d][1,2,3]triazol-5-yl)-5-(4-(phenoxy-methyl)phenyl)-1,2,4-oxadiazole]
> 0.316 | CCCn1nnc2cc(-c3nc(-c4cccc(C(F)(F)F)c4)no3)ccc21 [Compound 242, 1-propyl-5-{3-[3-(trifluoromethyl)phenyl]-1,2,4-oxadiazol-5-yl}-1H-1,2,3-benzotriazole]
> 0.316 | Cc1cccc(C)c1-c1noc(-c2ccc3c(c2)nnn3C(C)C)n1 [Compound 243, 3-(2,6-dimethyl-phenyl)-5-(1-isopropyl-1H-benzo[d][1,2,3]triazol-5-yl)-1,2,4-oxadiazole]
> 0.316 | CCC1(CC)CC(=O)c2cc(-c3nc(-c4ccncc4O)no3)ccc2O1 [Compound 312, 2,2-diethyl-6-(3-(3-hydroxypyridin-4-yl)-1,2,4-oxadiazol-5-yl)chroman-4-one]
> 0.316 | Cc1oc(-c2ccc3c(c2)nnn3C(C)C)nc1-c1ccc(Cl)cc1 [Compound 50, 5-[4-(4-chlorophenyl)-5-methyl-1,3-oxazol-2-yl]-1-(propan-2-yl)-1H-1,2,3-benzotriazole]

More lines, now with the values behind:

SMILES | EC50 [µM]
FC(F)(F)c1cc(-c2noc(-c3ccc4c(c3)nnn4C3CC3)n2)ccc1OCc1ccccc1 [Compound 85, 5-{3-[4-(benzyloxy)-3-(trifluoromethyl)phenyl]-1,2,4-oxadiazol-5-yl}-1-cyclopropyl-1H-1,2,3-benzotriazole] | > 0.316
CCC1(CC)CC(=O)c2cc(-c3nc(-c4ccc(O)cc4)no3)ccc2O1 [Compound 72, 2,2-diethyl-6-[3-(4-hydroxyphenyl)-1,2,4-oxadiazol-5-yl]chroman-4-one] | < 0.316
CCC1(CC)CC(=O)c2cc(-c3nc(-c4cccc(OC)c4)no3)ccc2O1 [Compound 71, 2,2-diethyl-6-(3-(3-methoxyphenyl)-1,2,4-oxadiazol-5-yl)chroman-4-one] | > 0.316
CC(C)n1nnc2cc(-c3noc(-c4ccccc4F)n3)ccc21 [Compound 307, 5-(2-fluorophenyl)-3-(1-isopropyl-1H-benzo[d][1,2,3]triazol-5-yl)-1,2,4-oxadiazole] | < 0.316
O=C1CC2(CCC(F)(F)CC2)Oc2ccc(-c3nc(-c4cccnc4)no3)cc21 [Compound 36, 4′,4′-difluoro-6-[3-(pyridin-3-yl)-1,2,4-oxadiazol-5-yl]-3,4-dihydrospiro[1-benzo-pyran-2,1′-cyclohexane]-4-one] | > 0.316
COc1cc(-c2noc(-c3ccc4c(c3)nnn4C3CCCC3)n2)ccn1 [Compound 281, 1-cyclopentyl-5-[3-(2-methoxypyridin-4-yl)-1,2,4-oxadiazol-5-yl]-1H-1,2,3-benzotriazole] | > 0.316
O=C1CCOc2ccc(-c3nc(-c4cccnc4)no3)cc21 [Compound 102, 6-[3-(pyridin-3-yl)-1,2,4-oxadiazol-5-yl]-3,4-dihydro-2H-1-benzopyran-4-one] | > 0.316
O=C(O)CCn1nnc2cc(-c3noc(-c4ccccc4Br)n3)ccc21 [Compound 134, 3-(5-(5-(2-bromophenyl)-1,2,4-oxadiazol-3-yl)-1H-benzo[d][1,2,3]triazol-1-yl)propanoic acid] | > 0.316
Cc1ccc(-c2noc(-c3ccc4c(c3)nnn4C(C)C)n2)cn1 [Compound 236, 5-[3-(6-methylpyridin-3-yl)-1,2,4-oxadiazol-5-yl]-1-(propan-2-yl)-1H-1,2,3-benzotriazole] | > 0.316
COc1ccc(-c2nc(-c3ccc4c(c3)nnn4C(C)C)no2)cc1 [Compound 69, 3-(1-isopropyl-benzotriazol-5-yl)-5-(4-methoxyphenyl)-1,2,4-oxadiazole] | > 0.316
CC(C)n1ncc2cc(-c3nc(-c4ccccc4Br)no3)ccc21 [Compound 332, 3-(2-bromophenyl)-5-(1-isopropyl-1H-indazol-5-yl)-1,2,4-oxadiazole] | < 0.316
c1ccc(Oc2ccc(-c3noc(-c4ccc5c(c4)nnn5C4CC4)n3)cc2)cc1 [Compound 285, 1-cyclopropyl-5-[3-(4-phenoxyphenyl)-1,2,4-oxadiazol-5-yl]-1H-1,2,3-benzotriazole] | > 0.316
N#Cc1cc(-c2nnc(-c3ccc4[nH]cnc4c3)o2)ccc1NCC(F)F [Compound 359, 5-[5-(1H-1,3-benzo-diazol-5-yl)-1,3,4-oxadiazol-2-yl]-2-[(2,2-difluoroethyl)amino] benzonitrile] | < 0.316
FC(F)(F)c1cc(Br)ccc1-c1noc(-c2ccc3c(c2)nnn3C2CCCC2)n1 [Compound 114, 5-{3-[4-bromo-2-(trifluoromethyl)phenyl]-1,2,4-oxadiazol-5-yl}-1-cyclopentyl-1H-1,2,3-benzotriazole] | > 0.316
COc1cccc(OC)c1-c1noc(-c2ccc3c(c2)nnn3C(C)C)n1 [Compound 251, 3-(2,6-dimethoxy-phenyl)-5-(1-isopropyl-benzotriazol-5-yl)-1,2,4-oxadiazole] | > 0.316
CC(C)Nc1ccc(-c2nc(-c3ccc4c(c3)CC(=O)N4)no2)cc1C#N [Compound 107, 2-(isopropylamino)-5-(3-(2-oxoindolin-5-yl)-1,2,4-oxadiazol-5-yl)benzonitrile] | < 0.316
Clc1ncccc1-c1noc(-c2ccc3c(c2)nnn3CC2CC2)n1 [Compound 199, 5-[3-(2-chloropyridin-3-yl)-1,2,4-oxadiazol-5-yl]-1-(cyclopropyl-methyl)-1H-1,2,3-benzotriazole] | > 0.316
COc1cccc(F)c1-c1noc(-c2ccc3c(cnn3C(C)C)c2)n1 [Compound 338, 3-(2-fluoro-6-methoxy-phenyl)-5-(1-isopropyl-indazol-5-yl)-1,2,4-oxadiazole] | > 0.316
Cc1cc(-c2nc(-c3ccc4c(c3)nnn4C(C)C)no2)ccn1 [Compound 86, 3-(1-isopropyl-1H-benzo[d][1,2,3]triazol-5-yl)-5-(2-methyl-pyridin-4-yl)-1,2,4-oxadiazole] | > 0.316
